# According to US5789434A, “Derivatives of substituted 4-biarylbutyric acid as matrix metalloprotease inhibitors” (priority 1995, dated 1998):
# Like-named read-outs stand apart in the source and are kept apart here.
# Columns and labels:
# Format in all cases: biochemical
# [1] = target: T1, MMP-3 (Homo sapiens, UniProt P08254); experiment: Primary Thiopeptilide MMP-3 Inhibition Assay; details: at 5 μM; read-out: MMP-3 Thiopep. % inhibition
# T1 construct: Truncated Prostromelysin-257 was expressed in a soluble form in E.coli; made in house; host or cells: E. coli
# Procedure: Enzyme: recombinant stromelysin expressed in E.coli and purified as described above. […] The protocols for the assay of compounds as stromelysin inhibitors was the same as that used for MMP-9 except that the assay buffer was 50 mM MES, pH 6.5 containing 150 mM NaCl, 10 mM CaCl2, 0.005% Brij, and 1% DMSO.
# [2] = target: T2, MMP-9 (Homo sapiens, UniProt P14780); experiment: Thiopeptilide MMP-9 Inhibition Assay
# T2 construct: from tissue; host or cells: human polymorphonuclear leukocytes (PMN) from whole blood (New York Blood Center), PMA-stimulated supernatant
# [3] = target: T1, MMP-3; experiment: Automated MMP Profiling Assay, MMP-3 fluorogenic; details: for IC50: 96-well automated, P218
# Excerpt: This assay with each invention compound was run with the three enzymes MMP-3, MMP-9 and MMP-2 in parallel as adapted for a 96-well microtitre plate using a Hamilton A® workstation.
# [4] = target: T2, MMP-9; experiment: Automated MMP Profiling Assay, MMP-9 fluorogenic; details: for IC50: 96-well automated, P218
# [5] = target: T3, MMP-2 (Homo sapiens, UniProt P08253); experiment: Automated MMP Profiling Assay, MMP-2 fluorogenic
# T3 sequence (P08253 110-660): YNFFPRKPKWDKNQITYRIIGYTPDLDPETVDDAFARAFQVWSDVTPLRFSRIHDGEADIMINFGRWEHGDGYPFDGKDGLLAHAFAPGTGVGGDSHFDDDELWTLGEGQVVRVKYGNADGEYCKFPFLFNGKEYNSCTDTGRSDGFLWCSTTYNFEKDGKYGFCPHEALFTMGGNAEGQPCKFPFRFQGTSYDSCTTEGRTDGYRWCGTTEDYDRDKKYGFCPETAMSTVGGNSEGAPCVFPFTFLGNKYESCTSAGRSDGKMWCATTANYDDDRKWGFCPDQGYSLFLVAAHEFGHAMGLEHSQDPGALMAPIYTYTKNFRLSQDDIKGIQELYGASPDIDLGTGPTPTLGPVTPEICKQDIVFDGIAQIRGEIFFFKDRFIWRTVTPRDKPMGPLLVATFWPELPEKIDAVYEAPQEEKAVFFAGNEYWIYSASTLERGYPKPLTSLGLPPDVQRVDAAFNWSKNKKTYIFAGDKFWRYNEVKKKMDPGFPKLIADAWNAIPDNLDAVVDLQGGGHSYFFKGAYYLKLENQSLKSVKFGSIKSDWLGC
# [6] = 96-well automated, P218, read-out: MMP-2 Fluorogenic IC50 (profiling)
# T1 sequence (P08254 100-274 limits assumed): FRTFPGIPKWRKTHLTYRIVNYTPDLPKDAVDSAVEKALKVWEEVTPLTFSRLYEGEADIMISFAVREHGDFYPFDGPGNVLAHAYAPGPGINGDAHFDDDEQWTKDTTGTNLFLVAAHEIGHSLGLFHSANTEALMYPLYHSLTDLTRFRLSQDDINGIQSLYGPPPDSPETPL
# T2 sequence (P14780 107-707 limits assumed): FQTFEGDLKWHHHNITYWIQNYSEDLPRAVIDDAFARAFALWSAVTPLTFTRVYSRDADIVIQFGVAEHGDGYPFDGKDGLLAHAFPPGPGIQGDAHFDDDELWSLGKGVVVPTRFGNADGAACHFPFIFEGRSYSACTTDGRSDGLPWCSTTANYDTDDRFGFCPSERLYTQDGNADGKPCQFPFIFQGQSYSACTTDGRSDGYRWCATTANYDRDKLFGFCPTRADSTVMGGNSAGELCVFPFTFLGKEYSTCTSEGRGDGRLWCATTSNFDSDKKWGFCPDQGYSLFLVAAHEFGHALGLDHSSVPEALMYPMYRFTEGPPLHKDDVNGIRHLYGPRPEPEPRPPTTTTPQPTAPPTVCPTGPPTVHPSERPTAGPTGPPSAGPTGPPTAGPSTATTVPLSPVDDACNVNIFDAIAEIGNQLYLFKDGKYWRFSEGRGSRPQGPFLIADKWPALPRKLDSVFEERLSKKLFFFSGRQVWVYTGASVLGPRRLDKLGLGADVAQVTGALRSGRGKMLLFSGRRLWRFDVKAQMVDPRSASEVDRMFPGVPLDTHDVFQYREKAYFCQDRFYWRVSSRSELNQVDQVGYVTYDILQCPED
SMILES,IC50 [3] [µM],IC50 [4] [µM],"IC50 [5, 6] [µM]",also measured
"O=C(C[C@@H](CCCc1ccccc1)C(=O)O)c1ccc(-c2ccc(Cl)cc2)cc1 [Example 115, 4-[4-(4-chlorophenyl)phenyl]-4-oxo-2R-(3-phenylpropyl)butanoic acid]",> 1.25,> 1.25,1.75,"inhibition at 5 µM [1]: 39%; inhibition at 5 µM ([2]; at 5 μM, read-out: MMP-9: Thiopep. % inhibition): 31%"
"O=C(O)[C@@H]1[C@@H](Sc2ccccc2)CC[C@H]1C(=O)c1ccc(-c2ccc(Cl)cc2)cc1 [Example 297, (1R,2S,5R)-trans-5-[4-(4-chlorophenyl)phenylcarbonyl]-trans-2-phenylthiocyclopentanecarboxylic acid]",5.75,2.37,2.07,"IC50 ([2]; pH 6.5, x (n) = average of n determinations, read-out: MMP-9: Thiopep. IC50): 0.64 µM"
"NC(=O)c1ccc(COc2ccc(-c3ccc(C(=O)CC(CCCc4ccccc4)C(=O)O)cc3)cc2)cc1 (stereo not drawn) [Example 112, [1,1'-Biphenyl]-4-butanoic acid, 4'-[[4-(aminocarbonyl)phenyl]methoxy]-γ-oxo-α-(3-phenylpropyl)-]",0.03,0.884,0.011,
"O=C(CC(CCSc1ccccc1)C(=O)O)c1ccc(-c2ccc(Cl)cc2)cc1 (stereo not drawn) [Example 426, [1,1'-Biphenyl]-4-butanoic acid, 4'-chloro-γ-oxo-α-[2-(phenylthio)ethyl]-]",0.161,0.417,0.035,
"O=C(O)[C@H]1[C@@H](Sc2ccccc2)CC[C@@H]1C(=O)c1ccc(-c2ccc(Cl)cc2)cc1 (relative stereo) [Example 313, Cyclopentanecarboxylic acid, 2-[(4'-chloro[1,1'-biphenyl]-4-yl)carbonyl]-5-(phenylthio)-, (1α,2β,5α)-]",3.33,,2.78,inhibition at 5 µM [4]: 20%
"O=C(O)[C@H]1[C@H](CN2C(=O)c3cc(Cl)c([N+](=O)[O-])cc3C2=O)CC[C@@H]1C(=O)c1ccc(-c2ccc(Cl)cc2)cc1 (relative stereo) [Example 390, Cyclopentanecarboxylic acid, 2-[(4'-chloro[1,1'-biphenyl]-4-yl)carbonyl]-5-[(5-chloro-1,3-dihydro-6-nitro-1,3-dioxo-2H-isoindol-2-yl)methyl]-, (1α,2β,5β)-]",0.01,0.0012,0.015,
"O=C(c1ccc(-c2ccc(Cl)cc2)cc1)[C@H]1CCN(C(=O)OCc2ccccc2)[C@@H]1C(=O)O [Example 166, 1,2-Pyrrolidinedicarboxylic acid, 3-[(4'-chloro[1,1'-biphenyl]-4-yl)carbonyl]-, 1-(phenylmethyl) ester, (2S-trans)-]",0.103,0.381,,IC50 [5]: 0.035 µM
"O=C(O)[C@@H]1CN(Cc2ccccc2)C[C@H]1C(=O)c1ccc(-c2ccc(Cl)cc2)cc1 (relative stereo) [Example 175, 3-Pyrrolidinecarboxylic acid, 4-[(4'-chloro[1,1'-biphenyl]-4-yl)carbonyl]-1-(phenylmethyl)-, trans-]",,,5,inhibition at 5 µM [3]: 28%; inhibition at 5 µM [4]: 6%
"COC(=O)c1ccccc1S[C@@H]1CC[C@@H](C(=O)c2ccc(-c3ccc(Cl)cc3)cc2)[C@@H]1C(=O)O [Example 300, (1R,2R,5R)-trans-5-[4-(4-chlorophenyl)phenylcarbonyl]-cis-2-(2-methoxycarbonylphenylthio)cyclopentanecarboxylic acid]",> 1.25,> 1.25,2.5,
"O=C(c1ccc(-c2ccc(Cl)cc2)cc1)[C@@H]1CCN(C(=O)OCc2ccccc2)[C@H]1C(=O)O [Example 167, 1,2-Pyrrolidinedicarboxylic acid, 3-[(4'-chloro[1,1'-biphenyl]-4-yl)carbonyl],1-(phneylmethyl) ester, (2R-trans)-]",,,,inhibition at 5 µM [3]: 18%; inhibition at 5 µM [4]: 23%; inhibition at 5 µM ([5]; at 5 μM): 31%
"O=C(O)[C@H]1[C@H](CN2C(=O)c3ccc([N+](=O)[O-])cc3C2=O)CC[C@@H]1C(=O)c1ccc(-c2ccc(Cl)cc2)cc1 (relative stereo) [Example 386, Cyclopentanecarboxylic acid, 2-[(4'-chloro[1,1'-biphenyl]-4-yl)carbonyl]-5-[(1,3-dihydro-5-nitro-1,3-dioxo-2H-isoindol-2-yl)methyl]-, (1α,2β,5β)-]",0.00834,0.00097,0.0117,
"O=C(CC(CCN1C(=O)c2ccc(OCc3ccccc3)cc2C1=O)C(=O)O)c1ccc(-c2ccc(Cl)cc2)cc1 (stereo not drawn) [Example 405, 2H-Isoindole-2-butanoic acid, α-[2-(4'-chloro[1,1'-biphenyl]-4-yl)-2-oxoethyl]-1,3-dihydro-1,3-dioxo-5-(phenylmethoxy)-]",0.075,0.0058,0.08,
"CCCCCOc1ccc(-c2ccc(C(=O)[C@H]3CC[C@@H](Cc4ccccc4)[C@@H]3C(=O)O)cc2)cc1 [Example 324, Cyclopentanecarboxylic acid, 2-[[4'-(pentyloxy)[1,1'-biphenyl]-4-yl]carbonyl]-5-(phenylmethyl)-, [1S-(1α,2β,5β)]-]",0.046,0.343,0.0081,
"O=C(CC(CCc1ccc(I)cc1)C(=O)O)c1ccc(-c2ccc(Cl)cc2)cc1 (stereo not drawn) [Example 128, [1,1'-Biphenyl]-4-butanoic acid, 4'-chloro-α-[2-(4-iodophenyl)ethyl]-γ-oxo-]",0.561,0.715,0.145,
O=C(NC[C@@H]1CC[C@H](C(=O)c2ccc(-c3ccc(Cl)cc3)cc2)[C@H]1C(=O)O)OCc1ccccc1 (relative stereo) [Example 377],0.024,0.044,0.028,
"O=C(CC(CCNC(=O)c1ccccc1C(=O)O)C(=O)O)c1ccc(-c2ccc(Cl)cc2)cc1 (single isomer, unassigned) [Example 280, [1,1'-Biphenyl]-4-butanoic acid, α-[2-[(2-carboxybenzoyl)amino]ethyl]-4'-chloro-γ-oxo-]",0.146,0.066,0.029,
O=C(CC(CCN1C(=O)c2cccc3c(Br)ccc(c23)C1=O)C(=O)O)c1ccc(-c2ccc(Cl)cc2)cc1 (stereo not drawn) [Example 418],0.305,0.089,0.42,
"Cc1ccc(C(=O)OC[C@@H]2CC[C@H](C(=O)c3ccc(-c4ccc(Cl)cc4)cc3)[C@H]2C(=O)O)cc1 (relative stereo) [Example 380, Benzoic acid, 4-methyl-, [2-carboxy-3-[(4'-chloro[1,1'-biphenyl]-4-yl)carbonyl]cyclopentyl]methyl ester, (1α,2β,3α)-]",0.046,0.04,0.069,
"CC(=O)O[C@H]1C[C@H](C(=O)c2ccc(-c3ccc(Cl)cc3)cc2)[C@H]1C(=O)O (relative stereo) [Example 395, Cyclobutanecarboxylic acid, 2-(acetyloxy)-4-[(4'-chloro[1,1'-biphenyl]-4-yl)carbonyl]-, (1α,2α,4β)-]",2.2,,0.56,inhibition at 5 µM [4]: 44%
"C=CCOc1ccc(-c2ccc(C(=O)CC(CCCc3ccccc3)C(=O)O)cc2)cc1 (stereo not drawn) [Example 95, [1,1'-Biphenyl]-4-butanoic acid, γ-oxo-α-(3-phenylpropyl)-4'-(2-propenyloxy)-]",0.079,0.077,0.026,
"CC(=O)Oc1ccc2c(c1)C(=O)N(CCC(CC(=O)c1ccc(-c3ccc(Cl)cc3)cc1)C(=O)O)C2=O (stereo not drawn) [Example 425, 2H-Isoindole-2-butanoic acid, 5-(acetyloxy)-α-[2-(4'-chloro[1,1'-biphenyl]-4-7l)2-oxoetyl]-1,3-dihydro-1,3-dioxo-]",0.0038,0.0012,0.014,
"COc1ccc(CSCCC(CC(=O)c2ccc(-c3ccc(Cl)cc3)cc2)C(=O)O)cc1 (stereo not drawn) [Example 427, [1,1'-Biphenyl]-4-butanoic acid, 4'-chloro-α-[2-[[(4-methoxyphenyl)methyl]thio]ethyl]-γ-oxo-]",0.189,0.362,0.042,
"O=C(O)[C@H]1[C@H](CSc2ccccc2)CC[C@@H]1C(=O)c1ccc(-c2ccc(Cl)cc2)cc1 (relative stereo) [Example 373, Cyclopentanecarboxylic acid, 2-[(4'-chloro[1,1'-biphenyl]-4-yl)carbonyl]-5-[(phenylthio)methyl]-, (1α,2β,5β)-]",0.056,0.113,0.024,
"CCCCCOc1ccc(-c2ccc(C(=O)[C@H]3CC[C@H](Sc4ccccc4)[C@@H]3C(=O)O)cc2)cc1 (relative stereo) [Example 317, Cyclopentanecarboxylic acid, 2-[[4'-(pentyloxy)[1,1'-biphenyl]-4-yl]carbonyl]-5-(phenylthio)-, (1α,2β,5α)-]",0.075,0.808,0.037,
